Results: patent EP0914370B1, “PROCESS FOR PRODUCING CLOSED CELL THERMOPLASTIC FOAMS CONTAINING HFC-134” (E.I. DU PONT DE NEMOURS AND COMPANY, priority 1996, dated 1998)
Marks after values point to notes of the source that are not given here.

Assays:
[1] = Solubility and solution pressure of blowing agents in Quantum "Petrothene" grade low density polyethylene, same procedure; type: physicochemical
[2] = Solubility and solution pressure of blowing agents in polystyrene resin, calculated with the Flory-Huggins equation; type: physicochemical; conditions: for WT% Blowing Agent Dissolves in Resin: atmospheric pressure (14.7 psia, 1 bar)
Excerpt: Certain aspects of the invention are illustrated by the Figures. The accompanying figures illustrate the suitability of HFC-134 as blowing agent for producing polystyrenic foam bodies, the data presented therein were obtained with the aid of the well-known Flory-Huggins equation (Flory, P.J.: "Principles of Polymer Chemistry"; Cornell University Press, Ithaca, N.Y.), discussed below.
These equilibrium pressures relate to the point in the extrusion process where blowing agent is mixed with resin; foaming cannot occur at these pressures.
The data presented in Figures 3-6 were determined through use of the Flory-Huggins equation for phase equilibria in polymer solutions. This equation uses values for the following parameters [(1) - (4)], which were obtained as follows: (1) liquid densities of the blowing agents, g/cc, were derived by using standard methods, drawing a straight line through the liquid density data (based on National Institute of Standards and Technology, NIST, experimental data; with equations based on the Modified Benedict-Webb-Rubin, MBWR, equation of state) from -50°C to 50°C and calculating the liquid density as a function of temperature. The density (d) equation recites: d=AT+B, wherein A is the slope of the line, B is the constant of the line, and T temperature (°C). The liquid densities are (grams/cubic centimeter, g/cm^3):
(2) The densities of the superheated vapors of the blowing agents, which are tabulated below, were calculated from the known vapor data of their thermodynamic properties (based on National Institute of Standards and Technology, NIST, experimental data; with equations based on the Modified Benedict-Webb-Rubin, MBWR, equation of state).
(3) The activity coefficients for the blowing agents that are tabulated below:
These coefficients were determined by dividing the experimental blowing agent partial pressure by the saturated vapor pressure at that temperature. (4) The interaction parameters, X1, were determined at four temperatures, and are presented graphically as a function of temperature in Figure 2 by means of the following equation and equation constants: X1 = A/T + B [formula] (where T = °K = °C + 273.2)
Such data are presented graphically in Figures 3, 4, 5 and 6. Figures 3-6 are plots of "weight% Blowing Agent Dissolved in Resin vs. Pressure of Solution" as a function of temperature. Representative solubilities of the blowing agents in the given resin at various extrusion process temperatures at atmospheric pressure (14.7 psia, 1 bar), are listed below in Table 1: Table 1

[3] = low density polyethylene, 25°C, 1 Atm
[4] = low density polyethylene, 180°C, 1 Atm
[5] = low density polyethylene, Extruder Temp 180°C
[6] = polystyrene resin, 25°C (footnote *)

FC(F)(Cl)C(F)(F)Cl [HCFC-114, 1,2-dichloro-1,1,2,2-tetrafluoroethane]
Solubility (wt % HFC) at 1 Atm of HFC Pres. 25°C [1, 3]: 2.01 wt % HFC
Solubility (wt % HFC) at 1 Atm of HFC Pres. Ext Temp [1, 4]: 0.38 wt % HFC
Limiting Solubility (wt % HFC) [1, 5]: 78 wt % HFC

FC(F)C(F)F [HFC-134, 1,1,2,2-tetrafluoroethane]
HFC-134/HFC-134a solubility ratio [2]: about 2/1
Limiting Solubility (wt % HFC) [2]: 81 wt % HFC
Solubility (wt % HFC) at 1 Atm of HFC Pres. 25°C [2]: 0.54 wt % HFC
Solubility (wt % HFC) at 1 Atm of HFC Pres. Ext Temp [2]: 0.2 wt % HFC
WT% Blowing Agent Dissolves in Resin [2, 6]: 0.6* WT%
WT% Blowing Agent Dissolves in Resin ([2]; polystyrene resin, 60°C): 0.5 WT%
WT% Blowing Agent Dissolves in Resin ([2]; polystyrene resin, 100°C): 0.4 WT%
WT% Blowing Agent Dissolves in Resin ([2]; polystyrene resin, 140°C): 0.3 WT%
WT% Blowing Agent Dissolves in Resin ([2]; polystyrene resin, 180°C): 0.2 WT%
WT% Blowing Agent Dissolves in Resin ([2]; polystyrene resin, 200°C): 0.15 WT%
Limiting Solubility (wt % HFC) [1]: 81 wt % HFC
Solubility (wt % HFC) at 1 Atm of HFC Pres. 25°C [1]: 0.64 wt % HFC
Solubility (wt % HFC) at 1 Atm of HFC Pres. Ext Temp [1]: 0.20 wt % HFC

FCC(F)(F)F [HFC-134a, 1,1,1,2-tetrafluoroethane]
WT% Blowing Agent Dissolves in Resin [2, 6]: 0.16* WT%
Solubility (wt % HFC) at 1 Atm of HFC Pres. 25°C ([2]; polystyrene resin, 25°C, 1 Atm): 0.16 wt % HFC
WT% Blowing Agent Dissolves in Resin ([2]; polystyrene resin, 60°C): 0.2 WT%
WT% Blowing Agent Dissolves in Resin ([2]; polystyrene resin, 100°C): 0.19 WT%
WT% Blowing Agent Dissolves in Resin ([2]; polystyrene resin, 140°C): 0.15 WT%
Solubility (wt % HFC) at 1 Atm of HFC Pres. Ext Temp ([2]; polystyrene resin, 180°C, 1 Atm): 0.11 wt % HFC
WT% Blowing Agent Dissolves in Resin ([2]; polystyrene resin, 180°C): 0.1 WT%
WT% Blowing Agent Dissolves in Resin ([2]; polystyrene resin, 200°C): 0.08 WT%
Limiting Solubility (wt % HFC) ([2]; polystyrene resin, Extruder Temp 180°C): 69 wt % HFC
Solubility (wt % HFC) at 1 Atm of HFC Pres. 25°C [1, 3]: 0.22 wt % HFC
Solubility (wt % HFC) at 1 Atm of HFC Pres. Ext Temp [1, 4]: 0.14 wt % HFC
Limiting Solubility (wt % HFC) [1, 5]: 74 wt % HFC

CC(F)(F)F [HFC-143a, 1,1,1-trifluoroethane]
Limiting Solubility (wt % HFC) [2]: 69 wt % HFC
Solubility (wt % HFC) at 1 Atm of HFC Pres. 25°C [2]: 0.04 wt % HFC
Solubility (wt % HFC) at 1 Atm of HFC Pres. Ext Temp [2]: 0.07 wt % HFC
WT% Blowing Agent Dissolves in Resin ([2]; polystyrene resin, 20°C): 0.04 WT%
WT% Blowing Agent Dissolves in Resin ([2]; polystyrene resin, 60°C): 0.08 WT%
WT% Blowing Agent Dissolves in Resin ([2]; polystyrene resin, 100°C): 0.13 WT%
WT% Blowing Agent Dissolves in Resin ([2]; polystyrene resin, 140°C): 0.1 WT%
WT% Blowing Agent Dissolves in Resin ([2]; polystyrene resin, 180°C): 0.07 WT%
WT% Blowing Agent Dissolves in Resin ([2]; polystyrene resin, 200°C): 0.05 WT%

CC(F)F [HFC-152a, 1,1-difluoroethane]
Limiting Solubility (wt % HFC) [2]: 83 wt % HFC
Solubility (wt % HFC) at 1 Atm of HFC Pres. 25°C [2]: 0.76 wt % HFC
Solubility (wt % HFC) at 1 Atm of HFC Pres. Ext Temp [2]: 0.2 wt % HFC
WT% Blowing Agent Dissolves in Resin ([2]; polystyrene resin, 20°C): 0.8 WT%
WT% Blowing Agent Dissolves in Resin ([2]; polystyrene resin, 60°C): 0.5 WT%
WT% Blowing Agent Dissolves in Resin ([2]; polystyrene resin, 100°C): 0.4 WT%
WT% Blowing Agent Dissolves in Resin ([2]; polystyrene resin, 140°C): 0.3 WT%
WT% Blowing Agent Dissolves in Resin ([2]; polystyrene resin, 180°C): 0.2 WT%
WT% Blowing Agent Dissolves in Resin ([2]; polystyrene resin, 200°C): 0.15 WT%

CCF [HFC-161, 1-fluoroethane]
Solubility (wt % HFC) at 1 Atm of HFC Pres. 25°C [1, 3]: 0.22 wt % HFC
Solubility (wt % HFC) at 1 Atm of HFC Pres. Ext Temp [1, 4]: 0.24 wt % HFC
Limiting Solubility (wt % HFC) [1, 5]: 89 wt % HFC
